Columns and labels:
[1] = test system: Arabidopsis thaliana cultured cells 87T; test: Concerted sensitivity test on herbicide and antibiotic in Arabidopsis thaliana cultured cells; type: cell-based; conditions: for inhibition of the growth rate in combination with spectinomycin: both spectinomycin and herbicide, effect not observed with individual administration of the same concentration
Procedure: Arabidopsis thaliana cultured cells 87T were used in the experiment. Media comprising different concentrations of a group of herbicides and spectinomycin using a redifferentiation medium (Q. Yu. et al. Plant Physiol. 2017. 175(1). 186-193) as the base were added to each well of a 24-well plate. Specifically, a plate with varying concentrations of the group of herbicides of 0, 0.1, 1, 10, 50, and 100 μM in the direction of the X-axis of the plate and varying concentrations of an antibiotic spectinomycin of 0, 1, 10, and 100 μg/mL in the direction of the y-axis was prepared (FIG. 9A). Pinoxaden, tepraloxydim, tralkoxydim, cyhalofop butyl, and haloxyfop were used as the group of herbicides in each plate. 100 μL of cultured cells was added to each well and cultured under light-dark conditions in an artificial climate incubator. On days 3, 7, and 15 after culture, the growth status was checked to study the concerted sensitivity of a herbicide and antibiotic. • Results

Oryza sativa callus = test: Herbicide selection of Oryza sativa callus on redifferentiation selection medium after plasmid bombardment; type: cell-based, Oryza sativa japonica (Nipponbare); conditions: callus introduced with pNC (no resistance) sensitive; redifferentiated individuals counted after about 6 weeks; tested 0.1-4.0 μM
Procedure: For the experiment, Oryza sativa japonica (Nipponbare) was used. Threshed Oryza sativa seeds were placed in a callus inducing medium, i.e., an N6D medium (Z. Shimatani et al. Nat Biol. 2017), and grown under conditions of 25° C. away from light within an artificial climate incubator to induce a primary callus. To prepare a callus plate for introducing a gene, the primary callus that had been actively growing for several weeks since induction of the callus from seeds was strained using a sterilized mesh. The refined callus was uniformly applied on filter paper placed on a callus inducing medium plate. A gene was introduced to a plate obtained by culturing the callus for 3 to 4 days within the artificial climate incubator. For selection of a transformant, a redifferentiation medium which is an MSRE medium (Z. Shimatani et al. Nat Biol. 2017) added with a suitable herbicide was used and cultured under conditions of 31.5° C. in a light-dark cycle of 12 hours within the artificial climate incubator. […]
After introduction of a gene, the plate was subjected to expansion culture under dark conditions in the artificial climate incubator for 3 to 4 days. […] The number of individuals redifferentiated from the callus clumps was counted as the selected individual count. • <Detection of Transgenesis in a Created Individual>

CC(Oc1ccc(Oc2ncc(C(F)(F)F)cc2Cl)cc1)C(=O)O (centres unmarked) [haloxyfop]
inhibition of the growth rate in combination with spectinomycin [1]: significant inhibition of the growth rate
concentration at which a selection effect of the herbicide can be expected (Oryza sativa callus): ≥ 0.1 µM

CCCCOC(=O)[C@@H](C)Oc1ccc(Oc2ccc(C#N)cc2F)cc1 [cyhalofop butyl]
inhibition of the growth rate by herbicide alone ([1]; herbicide alone, within the range of concentrations studied (0-100 μM)): not observed

CN[C@@H]1[C@H](O)[C@H](NC)[C@H]2O[C@@]3(O)C(=O)C[C@@H](C)O[C@H]3O[C@@H]2[C@H]1O [spectinomycin]
colour of cultured cells (chloroplast development) ([1]; 100 μg/mL spectinomycin): Change in color to yellow
inhibition of the growth rate by spectinomycin alone ([1]; only spectinomycin, concentration range studied (0-100 μg/mL)): not inhibited

CCO/N=C(\CC)C1=C(O)CC(c2c(C)cc(C)cc2C)CC1=O (centres unmarked) [tralkoxydim]
concentration at which a selection effect of the herbicide can be expected (Oryza sativa callus): ≥ 0.5 µM

CCc1cc(C)cc(CC)c1-c1c(OC(=O)C(C)(C)C)n2n(c1=O)CCOCC2 [pinoxaden]
inhibition of the growth rate in combination with spectinomycin [1]: significant inhibition of the growth rate
herbicide concentration at which inhibition of growth was observed ([1]; herbicide alone, tested 0-100 μM, growth checked on days 3, 7, 15): ≥ 10 µM

Source: patent US20230151376A1, “ORGANELLE TRANSFORMANT SCREENING METHOD” (NATIONAL UNIVERSITY CORPORATION KOBE UNIVERSITY, priority 2020, published 2023)
